Data published in US8715681B2, “Minimal motifs of linear B-cell epitopes in L1 protein from human papillomavirus type 58 and their applications” (Hengsun Pharmaceutical Technology Co. Ltd., priority 2012, dated 2014).
Ends that are not written are not given here.

System: rabbit serum raised against r-L1C
Assay: Epitope mapping of 18-mer peptide-GST188 fusion proteins by Western blotting with anti-r-L1C rabbit serum
Assay type: binding
Details: 18-mer peptides P25-P60 fused with GST188
From the text: 1. The clone of HPV 58 genome was purchased from commercial resource (20). With regular PCR method, the N terminal and C terminal of full-length HPV58-L1 cDNA were amplified from the HPV 58 genome we purchased and then were reconstructed into pRSET-C fusion expression plasmid. The expressed r-L1N^36-233 and r-L1C^226-524 proteins were purified from E. coli, and finally used as antigen to immunize three New Zealand white rabbits to prepare rabbit antisera against r-L1N^36-233 or r-L1C^226-524, respectively.
2. Previously we have constructed a fusion expression plasmid pXXGST-1 specially used for 8/18-mer short peptide biosynthesis in epitope mapping. In this plasmid, the macromolecule protein carrier was a truncated glutathione S-transferases (GST) with 188 residues (GST188) (China Patent NO.: 200710173305.2; 18). DNA recombinant technology was employed to express two sets of 18-mer peptides overlapping each other by 10 residues covering the domains of L1N^36-233 and L1C^226-524 fused with GST188, respectively. Specifically the DNA fragments encoding different short peptide were inserted into pXXGST-1 plasmid after annealing of chemically synthesized plus and minus DNA strands to double-strand DNA. […]

P27: biosynthetic 18-mer peptide of HPV58 L1 fused with GST188; contains DVPID (NKSDVPIDICNSTCKYPD; not fully specified (N-terminus); cysteine pairing not given here)
reactivity in Western blotting: reactive
